# Experimental data as given in patent publication US11357786B2, “Synthetic disugar hydrocarbons as natural analogs to control microbial behaviors” (Syracuse University, priority 2014, dated 2022).
# Entries after “also recorded” stand apart in the source; their conditions may differ.
# Legend:
# [1] = tested on: planktonic Pseudomonas aeruginosa (PAO1); experiment: Planktonic bacterial growth (OD600 growth curve); assay type: cell-based; settings: 160 μM, LB
# Procedure: Antimicrobial activities of disaccharide hydrocarbons against planktonic growth. Overnight inoculum of PAO1 was sub-cultured to an OD600˜0.1 and then aliquoted (200 μL) into the wells of a micro-titer plate and DSHs (˜160 μM) were then added to assigned wells. Wells with no-agents were created as a positive control. The micro-titer plate was then placed in a rotary shaker (250 rpm at 37° C.) and optical density was measured after regular intervals of time using Biotek ELx800 ™ absorbance microplate reader (BioTek Instruments, Inc., Winooski, Vt.) using Gen5™ data analysis software. The OD600 values were taken in sterile conditions over 24 h. The OD600 values were plotted against time to obtain a growth curve for planktonic growth with or without agents.
# Optical density was measured using Biotek ELx800 ™ absorbance microplate reader (BioTek Instruments, Inc., Winooski, Vt.) using Gen5™ data analysis software. The OD600 values were taken in sterile conditions at 0, 2, 4, 6, 8, 10, 12, and 24 h after bacterial culture inoculation in 96-well polystyrene plate with and without agents.
# wild type PAO1 = experiment: Swarming motility of wild type PAO1 on soft agar (antagonist assay); assay type: cell-based, Pseudomonas aeruginosa; settings: for Swarming motility of wild type PAO1: 85 μM in soft agar, 24 h; for Effect on PAO1 swarming: concentration not given
# Method in brief: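 Wild-type PAO1 culture (OD600 ~0.4–0.6, 3 μl) spotted on M8 swarm agar with 0.2% glucose, 0.5% casamino acids, 1 mM MgSO4 and 0.5% agar. Plates incubated 12 h at 37 °C then 12 h at room temperature; swarm area measured by cutting and weighing printed plate images.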
# [2] = tested on: nonswarming P. aeruginosa mutant rhlA; experiment: Swarming motility of nonswarming rhlA mutant on soft agar (reactivation / agonist assay); assay type: cell-based, Pseudomonas aeruginosa; settings: 85 μM in soft agar (0.5%), 24 h
# Method in brief: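 rhlA transposon mutant of PAO1 (3 μl, OD600 0.4–0.6) inoculated on M8 soft agar (0.2% glucose, 0.5% casamino acids, 1 mM MgSO4, 0.5% agar) with test compound to find swarming agonists. Incubated 12 h at 37 °C plus 12 h at room temperature; swarm area measured by weighing paper cut-outs of imaged swarms.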
# PAO1 and rhlA = experiment: Bacterial growth on soft agar swarm plate; assay type: cell-based, Pseudomonas aeruginosa
# Procedure: Swarm agar plates were based on M8 medium supplemented with 0.2% glucose, 0.5% casamino acid, 1 mM MgSO4 and […]. 17 For each set of experiment all the swarm plates were poured from same batch of agar and allowed to dry for 1 h before inoculation of bacteria. Bacterial culture (3 μl) (wild type PAO1 or rhlA mutant) with OD600 between […] was inoculated on the solidified agar plates. Swarm agar plates were incubated at 37° C. for 12 h and then incubated for additional 12 h at room temp. Chronological images of swarm plates were taken using a camera. To measure swarming area, sizes of the petridish in all swarming images were adjusted to a pre-assigned diameter and images were printed on copying paper (Xerox-business 4200). Weight of a 1 cm^2 copy paper square was roughly ˜8.0 mg. swarming images on the copy paper were cut and weighed, the swarm area was calculated by dividing the weight of image by weight of 1 cm^2 square (8 mg).
# PAO1 biofilm = experiment: Crystal violet based static biofilm inhibition assay, DSHs in LB media (Examples 2 and 4); assay type: cell-based, Pseudomonas aeruginosa; settings: for Inhibition of PAO1 biofilm formation (surface attached): 160 μM, 24 h, LB media; for Anti-biofilm activity (biofilm inhibition): concentration not given
# Method in brief: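 PAO1 subculture (OD600 ~0.1) was grown statically in LB at 37° C for 24 h with or without DSHs (screened at 160 μM). Surface-attached biofilm was then stained with 0.1% crystal violet, solubilised in 30% AcOH and read at 600 nm. Values are the mean of 4 wells.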
# PAO1-EGFP = experiment: Fluorescence adhesion assay on polystyrene, DSHs (Examples 2 and 4); assay type: cell-based, Pseudomonas aeruginosa; settings: 160 μM
# Procedure: The ability of DSHs was tested to inhibit Pseudomonas aeruginosa adhesion, biofilm and to disperse pre-formed biofilm. To quantify the amount of PAO1/EGFP attached on the surface of micro titer plates with or without the synthesized DSHs, fluorescence emitted by green fluorescent proteins (GFP) was quantified (see supporting info for details). Crystal violet (CV) based static biofilm assay (see supporting info) was used to screen the anti-biofilm potencies of all synthesized agents. Both surface attached (SA) (FIG. 17) and total (SA+air-liquid interface) biofilm of P. aeruginosa was quantified. […] CV assays were also used to quantify the amount of P. aeruginosa biofilm remaining after dispersion experiments (FIG. 19). Initially, all agents were screen for anti-biofilm activities (both inhibition and dispersion) at 160 μM. […]
# The effect that DSHs have on the adhesion of PAO1-EGFP on polystyrene surface (microtiter plate) was also examined. […] After 24-hours, the fluorescent signal obtained from surface adhered PAO1-EGFP was measured. Percent reduction in fluorescence was calculated by comparing fluorescent signal from PAO1-EGFP grown in LB-media with the signal from wells that had DSHs (FIG. 29A). […] After 24 hours, the surface attached biofilms adhering to the bottom of the wells were stained with crystal-violet dye and the biofilm was quantified by measuring absorbance at 600 nm (OD600). […]
# 1-day old PAO1 biofilm = experiment: Crystal violet assay for dispersion of 1-day old biofilm, DSHs (Examples 2 and 4); assay type: cell-based, Pseudomonas aeruginosa; settings: 160 μM, another 24 h
# Procedure: The effect that DSHs have on the adhesion of PAO1-EGFP on polystyrene surface (microtiter plate) was also examined. PAO1-EGFP is a P. aeruginosa strain that constitutively expresses green fluorescent protein. In the adhesion assays, PAO1-EGFP was grown in microtiter plate for 24-hours in LB-media with (160 μM) or without DSHs. After 24-hours, the fluorescent signal obtained from surface adhered PAO1-EGFP was measured. Percent reduction in fluorescence was calculated by comparing fluorescent signal from PAO1-EGFP grown in LB-media with the signal from wells that had DSHs (FIG. 29A). To study the effect of DSHs on biofilm formation, Pseudomonas aeruginosa (PAO1) was grown in LB-media with (160 μM) or without DSHs at 37° C. under static conditions within wells of microtiter plates. After 24 hours, the surface attached biofilms adhering to the bottom of the wells were stained with crystal-violet dye and the biofilm was quantified by measuring absorbance at 600 nm (OD600). The percent inhibition was calculated by comparing biofilm content of wells with no added agents (control) with the biofilm content from wells that had 160 μM of DSHs (FIG. 29A). Similar to inhibition, the surface attached biofilm after dispersion with DSHs was quantified with crystal-violet staining and absorbance measurement at 600 nm, except that for dispersion, biofilm was first grown for 1 day in just LB-media without any DSHs after which DSHs were added and plates were incubated for additional 24 hours followed by quantification (FIG. 29B).
# Crystal violet based assay for quantifying dispersion of 1-day old PAO1 biofilms were Plate for set up similar to inhibition assay with a slight modification. Wells of the micro-titer plate was inoculated with (200 μL) bacterial subculture (PAO1 subculture OD600 ˜0.1). The plates were incubated at 37° C. for 24 hours to allow biofilm formation. After 24 hours, bacterial culture was gently pipetted out and appropriate volume of DSH were added followed by addition of fresh LB medium (200 μL). The microtiter plate was incubated for an additional 24 hours at 37° C., following which, similar to work up of inhibition assay, culture was removed, wells were washed and CV-dye was introduced, followed by washing and destaining with 30% AcOH solution in water and quantification at 600 nm. Here again, only the surface attached biofilm dispersed was reported by comparing wells with DSHs with wells with no agent.
# Dose dependence assays for biofilm inhibition and dispersion. […] Both for biofilm inhibition and dispersion, predetermined volumes of DSH stocks were added to the assigned wells to span a concentration range between 0.5 μM-170 μM. Percent biofilm inhibition of dispersion was calculated by comparing to wells with no agent. The percent biofilm inhibition or dispersion was plotted versus concentration of DSHs. The linear values were logarithmically curve fitted using equation […]. The half maximal inhibitory concentration for both biofilm inhibition and dispersion (IC50 and DC50) were thus obtained.
compound,measurement,setting,value
"CC(C)=CCC/C(C)=C/CC/C(C)=C/CO[C@@H]1O[C@H](CO)[C@@H](O[C@@H]2O[C@H](CO)[C@@H](O)[C@H](O)[C@H]2O)[C@H](O)[C@H]1O [FβC (11), farnesyl-β-cellobioside]",Inhibition of planktonic growth of Pseudomonas aeruginosa,[1],did not inhibit the planktonic growth
same,Swarming motility of wild type PAO1,wild type PAO1,weak promotion of swarming motility of wild type PAO1
same,Effect on PAO1 swarming,wild type PAO1,no apparent effect on PAO1 swarming
same,Swarming motility of rhlA mutant,[2],weak activation of rhlA swarming motility
same,Bacterial growth on soft-agar plate,"PAO1 and rhlA; 160 μM, PAO1 and rhlA",complete abolition of bacterial growth on the soft-agar plate
same,Bacterial growth on soft agar (~0.5%) plate,"PAO1 and rhlA; PAO1, concentration not stated",inhibited bacterial (PAO1) growth on a soft agar
same,Inhibition of PAO1 biofilm formation (surface attached),"PAO1 biofilm; listed as 11: FβC, 160 µM",poor anti-biofilm activity
same,Anti-biofilm activity (biofilm inhibition),PAO1 biofilm,did not show anti-biofilm activities
dodecyl-β-cyclodextrin [DβCDS (18)],Adhesion inhibition of PAO1-EGFP on polystyrene,PAO1-EGFP,29%
same,Dispersion of 24-h old PAO1 biofilm,1-day old PAO1 biofilm,promoted biofilm formation instead of causing dispersion
same,Swarming motility of wild type PAO1,wild type PAO1,no significant effect on the swarming motility
same,Effect on PAO1 swarming,wild type PAO1,no apparent effect on PAO1 swarming
same,Swarming motility of rhlA mutant,[2],no significant effect on the swarming motility
same,Inhibition of PAO1 biofilm formation (surface attached),PAO1 biofilm,insignificant biofilm inhibition
same,Inhibition of PAO1 biofilm formation (surface attached),"PAO1 biofilm; listed as 18: DβCDS, 160 µM",increased the biofilm content
same,Anti-biofilm activity (biofilm inhibition),PAO1 biofilm,weak anti-biofilm activity; also recorded: did not show anti-biofilm activities
